From ChEMBL document CHEMBL4699569, “Rapid discovery of a selective butyrylcholinesterase inhibitor using structure-based virtual screening” (Bioorg Med Chem Lett, 2020) come the findings set out here.

Data set [1] has as its target T1, Cholinesterase (Equus caballus, UniProt P81908). Nature of the data set: Inhibition of equine serum BuChE. The format is cell-free.
In data set [2] the target is Acetylcholinesterase (Electrophorus electricus, UniProt O42275). The data set can be described thus: Inhibition of electric eel AChE at 100 uM.
The target in data set [3] is Cholinesterase (Homo sapiens, UniProt P06276). The data set can be described thus: Inhibition of human BuChE at 10 uM.
Data set [4] in a line: Permeability of compound by PAMPA-BBB assay. Format: ADME. Conditions: read-out: permeability; call rule not given here. Background: In PAMPA a lipid-coated filter parts donor from acceptor wells.
Data set [5] concerns the target T1, Cholinesterase. Nature of the data set: Mixed inhibition of equine serum BChE using butyrylthiocholine iodide as substrate. The format is cell-free.
Data set [6] deals with Acetylcholinesterase (Homo sapiens) (UniProt P22303). Nature of the data set: Inhibition of human recombinant AChE at 200 uM.
Sequence of Acetylcholinesterase (Homo sapiens) (P22303 whole entry): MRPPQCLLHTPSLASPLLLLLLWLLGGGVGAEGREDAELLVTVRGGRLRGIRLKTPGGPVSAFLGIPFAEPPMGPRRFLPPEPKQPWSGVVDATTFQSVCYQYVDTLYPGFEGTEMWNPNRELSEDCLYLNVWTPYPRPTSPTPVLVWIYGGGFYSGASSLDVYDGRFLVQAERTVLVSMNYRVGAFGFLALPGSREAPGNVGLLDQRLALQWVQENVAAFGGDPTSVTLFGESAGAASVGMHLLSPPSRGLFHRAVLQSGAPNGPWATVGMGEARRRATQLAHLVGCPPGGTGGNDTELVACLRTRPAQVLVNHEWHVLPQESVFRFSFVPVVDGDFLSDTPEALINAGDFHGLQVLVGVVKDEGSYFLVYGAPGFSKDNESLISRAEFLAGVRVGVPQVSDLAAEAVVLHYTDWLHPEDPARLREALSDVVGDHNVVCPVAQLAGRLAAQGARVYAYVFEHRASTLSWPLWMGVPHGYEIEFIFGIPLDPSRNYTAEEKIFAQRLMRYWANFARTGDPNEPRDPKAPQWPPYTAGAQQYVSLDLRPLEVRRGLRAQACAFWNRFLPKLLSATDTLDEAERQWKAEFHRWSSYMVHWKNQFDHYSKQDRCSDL

T1 sequence (P81908 whole entry): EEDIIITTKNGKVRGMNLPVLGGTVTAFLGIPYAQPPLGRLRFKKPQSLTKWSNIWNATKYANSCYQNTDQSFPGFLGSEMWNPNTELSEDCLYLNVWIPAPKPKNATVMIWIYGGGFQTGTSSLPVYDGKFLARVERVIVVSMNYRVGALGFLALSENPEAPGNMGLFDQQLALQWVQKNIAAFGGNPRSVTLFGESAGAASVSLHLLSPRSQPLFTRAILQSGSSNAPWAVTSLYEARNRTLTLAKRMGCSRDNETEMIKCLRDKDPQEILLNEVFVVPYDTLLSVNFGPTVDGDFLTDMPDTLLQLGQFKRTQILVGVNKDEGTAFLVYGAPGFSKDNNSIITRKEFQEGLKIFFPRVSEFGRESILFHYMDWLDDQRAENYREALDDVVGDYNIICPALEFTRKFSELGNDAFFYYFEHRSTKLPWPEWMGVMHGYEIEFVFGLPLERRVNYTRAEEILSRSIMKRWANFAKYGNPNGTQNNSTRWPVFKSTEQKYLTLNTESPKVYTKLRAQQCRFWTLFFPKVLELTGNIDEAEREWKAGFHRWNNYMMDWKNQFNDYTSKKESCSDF
Sequence of Acetylcholinesterase (O42275 whole entry): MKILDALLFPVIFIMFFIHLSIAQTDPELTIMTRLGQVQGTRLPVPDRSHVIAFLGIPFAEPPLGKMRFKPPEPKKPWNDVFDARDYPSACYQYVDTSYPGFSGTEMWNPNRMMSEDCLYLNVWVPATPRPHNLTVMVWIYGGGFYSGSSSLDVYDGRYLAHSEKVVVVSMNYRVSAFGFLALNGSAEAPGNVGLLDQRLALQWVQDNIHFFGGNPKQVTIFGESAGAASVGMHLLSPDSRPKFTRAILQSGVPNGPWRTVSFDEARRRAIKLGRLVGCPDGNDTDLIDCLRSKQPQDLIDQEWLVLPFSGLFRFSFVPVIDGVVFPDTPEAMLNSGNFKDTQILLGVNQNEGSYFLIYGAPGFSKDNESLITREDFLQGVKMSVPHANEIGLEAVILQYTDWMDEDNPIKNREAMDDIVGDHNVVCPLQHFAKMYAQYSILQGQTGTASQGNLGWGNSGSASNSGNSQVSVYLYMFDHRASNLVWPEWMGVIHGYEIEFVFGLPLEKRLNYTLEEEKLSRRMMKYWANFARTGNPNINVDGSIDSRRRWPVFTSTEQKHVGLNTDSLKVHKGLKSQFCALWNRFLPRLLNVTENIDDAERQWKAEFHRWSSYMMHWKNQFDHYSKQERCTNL
Sequence of Cholinesterase (Homo sapiens, UniProt P06276) (P06276 whole entry): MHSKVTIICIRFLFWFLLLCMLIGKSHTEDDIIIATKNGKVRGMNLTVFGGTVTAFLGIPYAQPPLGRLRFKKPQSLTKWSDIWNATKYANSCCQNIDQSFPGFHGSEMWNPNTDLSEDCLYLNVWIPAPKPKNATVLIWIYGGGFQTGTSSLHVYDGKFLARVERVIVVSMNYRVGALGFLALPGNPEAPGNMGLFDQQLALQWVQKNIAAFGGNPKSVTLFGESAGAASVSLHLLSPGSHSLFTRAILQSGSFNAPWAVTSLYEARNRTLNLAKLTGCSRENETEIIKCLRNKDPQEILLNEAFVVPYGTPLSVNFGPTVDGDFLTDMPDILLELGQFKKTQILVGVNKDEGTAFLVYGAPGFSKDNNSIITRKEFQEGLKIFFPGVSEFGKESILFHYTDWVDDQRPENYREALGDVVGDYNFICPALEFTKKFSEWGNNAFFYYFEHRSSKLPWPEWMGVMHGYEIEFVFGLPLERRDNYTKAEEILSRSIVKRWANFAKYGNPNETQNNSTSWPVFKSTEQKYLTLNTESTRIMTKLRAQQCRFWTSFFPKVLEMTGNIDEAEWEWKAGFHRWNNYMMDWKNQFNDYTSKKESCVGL

As usually defined, the IC50 is the point on the concentration scale where inhibition reaches its midpoint. Read a low IC50 as inhibition by little substance. For `COc1ccccc1C1CCN(Cc2c(C)[nH]c3ccccc23)CC1`, the values for the half-maximal inhibitory concentration (IC50) in data set [1] and in data set [2] were 12.3 µM and “Not Active”, respectively.
The Ki is a dissociation constant, usually derived from enzyme kinetics or from competition with a known ligand. High values mean a looser hold on the target, low ones a stronger hold on the target. The inhibition is how much of the control response was suppressed. Regarding `COc1ccc(-c2cc(C(=O)N3CCN(Cc4ccccc4)CC3)c3ccccc3n2)cc1`, the IC50 in data set [3] is 2.4 µM; in data set [1], 3.3 µM; in data set [2] it was “Not Active”. Further, the Papp in data set [4] was 1.28 ×10⁻⁶ cm/s. In addition, in data set [5], affinity was put at a Ki of 5.2 µM. For the same compound, the inhibition in data set [6] is 8%.
